In US20250195513A1, “DEGRADATION OF IRAK4 BY CONJUGATION OF IRAK4 INHIBITORS WITH E3 LIGASE LIGAND AND METHODS OF USE” (BeiGene, Ltd., priority 2022, published 2025):

Tests used:
IRAK4 [1] = target: T1, IRAK4 (Homo sapiens, UniProt Q9NWZ3); experiment: IRAK4 Degradation Assay (Karpas299, HTRF/TR-FRET); assay type: cell-based; conditions: Karpas-299 cells
T1 construct: endogenous in cells; host or cells: Karpas299
T1 sequence (Q9NWZ3 1-460): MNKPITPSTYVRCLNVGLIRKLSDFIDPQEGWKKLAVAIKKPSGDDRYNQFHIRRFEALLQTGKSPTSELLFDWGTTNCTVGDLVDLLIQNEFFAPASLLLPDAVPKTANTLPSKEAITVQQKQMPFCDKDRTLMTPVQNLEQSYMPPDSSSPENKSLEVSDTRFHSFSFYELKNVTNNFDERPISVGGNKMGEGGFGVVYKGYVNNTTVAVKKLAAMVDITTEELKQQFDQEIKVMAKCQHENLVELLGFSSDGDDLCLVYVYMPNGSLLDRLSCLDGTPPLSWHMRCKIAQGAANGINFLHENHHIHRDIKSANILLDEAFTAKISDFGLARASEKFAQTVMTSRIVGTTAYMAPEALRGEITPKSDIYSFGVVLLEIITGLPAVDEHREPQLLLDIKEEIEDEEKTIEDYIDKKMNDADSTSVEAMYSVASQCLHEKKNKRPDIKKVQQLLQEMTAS
Procedure, shortened: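 Karpas299 cells at 0.2 million per well were exposed to serially diluted compounds for 24 h or 5 h, then lysed. IRAK4 remaining in lysates was quantified by HTRF (665/620 nm) after overnight antibody incubation at room temperature. Percent degradation was fitted to a four-parameter curve to give IC50 (DC50).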

IRAK4 [2] = target: T1, IRAK4; experiment: IRAK4 Degradation Assay with Human Serum (Karpas299, HTRF/TR-FRET); assay type: cell-based; conditions: Karpas-299 in human serum, 24 hrs treatment; for DC50: read-out: IRAK4 degradtion with human serum assay DC50; for Dmax: read-out: IRAK4 degradtion with human serum assay Dmax (%)
Procedure, shortened: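 Karpas299 cells in human AB serum (0.2 million/well) treated with serial compound dilutions for 24 h. After lysis, IRAK4 quantified by HTRF (overnight antibody incubation at room temperature, 665/620 nm read). Degradation percentage fitted to four-parameter curve to give DC50.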

[3] = 24 h treatment, maximum percentage of degradation, read-out: IRAK4 in Karpas-299 (24 h) Dmax (%)
[4] = 24 h treatment, read-out: IRAK4 in Karpas-299 (24 h) DC50
[5] = 5 h treatment, maximum percentage of degradation, read-out: IRAK4 in Karpas-299 (5 h) Dmax (%)
[6] = 5 h treatment, read-out: IRAK4 in Karpas-299 (5 h) DC50

Row | SMILES | Dmax (IRAK4 [1]; [3]) | DC50 (IRAK4 [1]; [4]) | DC50 (IRAK4 [2]) | Dmax (IRAK4 [2]) | IRAK4 in Karpas-299 (24 h) Dmax (%) (IRAK4 [1]; 24 h treatment, maximum percentage of degradation) | IRAK4 degradtion with human serum assay Dmax (%) (IRAK4 [2]) | Dmax (IRAK4 [1]; [5]) | DC50 (IRAK4 [1]; [6])
1 | COC[C@@H]1CN(C[C@@H]2CCN(c3cc(F)c([C@H]4CCC(=O)NC4=O)c(F)c3)C2)CCN1[C@H]1CC[C@H](n2cc3cc(NC(=O)c4ccc5cc(C#N)cnn45)c(C(C)(C)O)cc3n2)CC1 [Example 388, 3-cyano-N-(2-((1S,4r)-4-((S)-4-(((S)-1-(4-((R)-2,6-dioxopiperidin-3-yl)-3,5-difluorophenyl)pyrrolidin-3-yl)methyl)-2-(methoxymethyl)piperazin-1-yl)cyclohexyl)-6-(2-hydroxypropan-2-yl)-2H-indazol-5-yl)pyrrolo[1,2-b]pyridazine-7-carboxamide] | 97% | 1.1 nM | 12 nM | 98% | – | – | – | –
2 | CC(C)(O)c1cc2nn(C3CCC(N4C[C@@H]5CN(C6CCN(c7cc(F)c([C@H]8CCC(=O)NC8=O)c(F)c7)CC6)C[C@H]5C4)CC3)cc2cc1NC(=O)c1ccc2cc(C#N)cnn12 (stereo partly drawn) [Example 361, 3-cyano-N-(2-((1R,4r)-4-((3aR,6aR)-5-(1-(4-((R)-2,6-dioxopiperidin-3-yl)-3,5-difluorophenyl)piperidin-4-yl)hexahydropyrrolo[3,4-c]pyrrol-2(1H)-yl)cyclohexyl)-6-(2-hydroxypropan-2-yl)-2H-indazol-5-yl)pyrrolo[1,2-b]pyridazine-7-carboxamide] | 97% | 4.3 nM | 5 nM | 93% | – | – | – | –
3 | CC(C)(O)c1cc2nn([C@H]3CC[C@H](N4CCN(CCNc5cccc6c5C(=O)N(C5CCC(=O)NC5=O)C6=O)CC4)CC3)cc2cc1NC(=O)c1ccc2cc(C#N)cnn12 (some centres unmarked) [Example 437, 3-cyano-N-(2-((1r,4r)-4-(4-(2-((2-(2,6-dioxopiperidin-3-yl)-1,3-dioxoisoindolin-4-yl)amino)ethyl)piperazin-1-yl)cyclohexyl)-6-(2-hydroxypropan-2-yl)-2H-indazol-5-yl)pyrrolo[1,2-b]pyridazine-7-carboxamide] | 99% | 4.7 nM | 9.4 nM | 101% | – | – | – | –
4 | CC(C)(O)c1cc2nn([C@H]3CC[C@H](N4CCN(C(=O)C5CCN(c6ccc7c(c6)C(=O)N(C6CCC(=O)NC6=O)C7=O)CC5)CC4)CC3)cc2cc1NC(=O)c1ccc2cc(C#N)cnn12 (some centres unmarked) [Example 429, 3-cyano-N-(2-((1r,4r)-4-(4-(1-(2-(2,6-dioxopiperidin-3-yl)-1,3-dioxoisoindolin-5-yl)piperidine-4-carbonyl)piperazin-1-yl)cyclohexyl)-6-(2-hydroxypropan-2-yl)-2H-indazol-5-yl)pyrrolo[1,2-b]pyridazine-7-carboxamide] | 97% | 1 nM | 32 nM | 94% | – | – | – | –
5 | CC(C)(O)c1cc2nn([C@H]3CC[C@H](N4CCN(CC5CN(c6cc(F)c([C@H]7CCC(=O)NC7=O)c(F)c6)C5)CC4)CC3)cc2cc1NC(=O)c1ccc2n1NCC(C#N)=C2 [Example 397, 3-cyano-N-(2-((1r,4r)-4-(4-((1-(4-((R)-2,6-dioxopiperidin-3-yl)-3,5-difluorophenyl)azetidin-3-yl)methyl)piperazin-1-yl)cyclohexyl)-6-(2-hydroxypropan-2-yl)-2H-indazol-5-yl)-1,2-dihydropyrrolo[1,2-b]pyridazine-7-carboxamide] | – | 1.7 nM | 12 nM | – | 95% | 96% | – | –
6 | Cc1cc(C2CCC(=O)NC2=O)c(F)cc1[C@H]1C[C@H](N2CCN([C@H]3CC[C@H](n4cc5cc(NC(=O)c6ccc7cc(C#N)cnn67)c(C(C)(C)O)cc5n4)CC3)CC2)C1 (stereo partly drawn) [Example 297, 3-cyano-N-(2-((1R,4r)-4-(4-((1r,3R)-3-(4-(2,6-dioxopiperidin-3-yl)-5-fluoro-2-methylphenyl)cyclobutyl)piperazin-1-yl)cyclohexyl)-6-(2-hydroxypropan-2-yl)-2H-indazol-5-yl)pyrrolo[1,2-b]pyridazine-7-carboxamide] | 97% | 1.4 nM | 6 nM | 99% | – | – | 96% | 3.4 nM
7 | CC(C)(O)c1cc2nn(C34CC(N5CCN(C(=O)[C@@H]6CCN(c7cc(F)c([C@H]8CCC(=O)NC8=O)c(F)c7)C6)CC5)(C3)C4)cc2cc1NC(=O)c1cccc(C(F)(F)F)n1 [Example 152, N-(2-(3-(4-((R)-1-(4-((R)-2,6-dioxopiperidin-3-yl)-3,5-difluorophenyl)pyrrolidine-3-carbonyl)piperazin-1-yl)bicyclo[1.1.1]pentan-1-yl)-6-(2-hydroxypropan-2-yl)-2H-indazol-5-yl)-6-(trifluoromethyl)picolinamide] | 96% | 2.1 nM | 55 nM | 98% | – | – | 96% | 3.8 nM
8 | CC(C)(O)c1cc2nn(C3CCN([C@@H]4CCN(CCc5cc(F)c([C@H]6CCC(=O)NC6=O)c(F)c5)CC4(F)F)CC3)cc2cc1NC(=O)c1ccc2cc(C#N)cnn12 [Example 340, 3-cyano-N-(2-((R)-1′-(4-((R)-2,6-dioxopiperidin-3-yl)-3,5-difluorophenethyl)-3′,3′-difluoro-[1,4′-bipiperidin]-4-yl)-6-(2-hydroxypropan-2-yl)-2H-indazol-5-yl)pyrrolo[1,2-b]pyridazine-7-carboxamide] | 98% | 3.4 nM | 16 nM | 97% | – | – | – | –

Now those with a lower DC50 (IRAK4 [1]; [4]), led by results:

Row | Dmax (IRAK4 [1]; [3]) | DC50 (IRAK4 [1]; [4]) | DC50 (IRAK4 [2]) | Dmax (IRAK4 [2]) | IRAK4 in Karpas-299 (24 h) Dmax (%) (IRAK4 [1]; 24 h treatment, maximum percentage of degradation) | IRAK4 degradtion with human serum assay Dmax (%) (IRAK4 [2]) | Dmax (IRAK4 [1]; [5]) | DC50 (IRAK4 [1]; [6]) | SMILES
9 | 97% | 0.9 nM | 11 nM | 98% | – | – | – | – | CC(C)(O)c1cc2nn([C@H]3CC[C@H](N4CCN(C[C@@H]5CCN(c6cc(F)c([C@H]7CCC(=O)NC7=O)c(F)c6)C5)CC4)CC3)cc2cc1NC(=O)c1ccc2cc(C#N)cnn12 [Example 392, 3-cyano-N-(2-((1S,4r)-4-(4-(((S)-1-(4-((R)-2,6-dioxopiperidin-3-yl)-3,5-difluorophenyl)pyrrolidin-3-yl)methyl)piperazin-1-yl)cyclohexyl)-6-(2-hydroxypropan-2-yl)-2H-indazol-5-yl)pyrrolo[1,2-b]pyridazine-7-carboxamide]
10 | 93% | 0.8 nM | 5.4 nM | 94% | – | – | – | – | CC(C)(O)c1cc2nn([C@H]3CC[C@H](N4CCN(C5CN(c6cc(F)c([C@H]7CCC(=O)NC7=O)c(F)c6)C5)CC4)CC3)cc2cc1NC(=O)c1coc2cccnc12 [Example 404, N-(2-((1R,4r)-4-(4-(1-(4-((R)-2,6-dioxopiperidin-3-yl)-3,5-difluorophenyl)azetidin-3-yl)piperazin-1-yl)cyclohexyl)-6-(2-hydroxypropan-2-yl)-2H-indazol-5-yl)furo[3,2-b]pyridine-3-carboxamide]
11 | 96% | 0.6 nM | 3 nM | 97% | – | – | – | – | CC(C)(O)C[C@H]1CN(CCc2cc(F)c([C@H]3CCC(=O)NC3=O)c(F)c2)CCN1[C@H]1CC[C@H](n2cc3cc(NC(=O)c4ccc5cc(C#N)cnn45)c(C(C)(C)O)cc3n2)CC1 [Example 369, 3-cyano-N-(2-((1S,4r)-4-((S)-4-(4-((R)-2,6-dioxopiperidin-3-yl)-3,5-difluorophenethyl)-2-(2-hydroxy-2-methylpropyl)piperazin-1-yl)cyclohexyl)-6-(2-hydroxypropan-2-yl)-2H-indazol-5-yl)pyrrolo[1,2-b]pyridazine-7-carboxamide]
12 | 96% | 0.6 nM | 11 nM | 98% | – | – | – | – | CC(C)(O)c1cc2nn([C@H]3CC[C@H](N4CCN(C(=O)C5CN(c6cnc(C7CCC(=O)NC7=O)c(F)c6)C5)CC4)CC3)cc2cc1NC(=O)c1ccc2cc(C#N)cnn12 (some centres unmarked) [Example 187, 3-cyano-N-(2-((1r,4r)-4-(4-(1-(6-(2,6-dioxopiperidin-3-yl)-5-fluoropyridin-3-yl)azetidine-3-carbonyl)piperazin-1-yl)cyclohexyl)-6-(2-hydroxypropan-2-yl)-2H-indazol-5-yl)pyrrolo[1,2-b]pyridazine-7-carboxamide]
13 | 100% | 0.5 nM | 3.6 nM | 99% | – | – | – | – | C[C@H]1CN(C2CCN(c3cc(F)c([C@H]4CCC(=O)NC4=O)c(F)c3)CC2)CCN1[C@H]1CC[C@H](n2cc3cc(NC(=O)c4ccc5cc(C#N)cnn45)c(C(C)(C)O)cc3n2)CC1 [Example 307, 3-cyano-N-(2-((1S,4r)-4-((S)-4-(1-(4-((R)-2,6-dioxopiperidin-3-yl)-3,5-difluorophenyl)piperidin-4-yl)-2-methylpiperazin-1-yl)cyclohexyl)-6-(2-hydroxypropan-2-yl)-2H-indazol-5-yl)pyrrolo[1,2-b]pyridazine-7-carboxamide]
